From US12570655B2, “Cysteine covalent modifiers of AKT1 and uses thereof” (Terremoto Biosciences, Inc., priority 2023, dated 2026) come the findings set out here.

One assay deals with T1, AKT1 E17K (Homo sapiens, UniProt P31749, E17K).
T1 construct: expressed in transfected cells; host or cells: HEK293
The assay can be described thus: Live cell AKT1 E17K target engagement by NanoBRET competitive probe displacement. As to conditions: HEK293 cells transfected with kinase-NanoLuciferase fusion, 2 h at 37° C. The assay is classed as cell-based. How it is done:
Determining Live Cell AKT1 E17K, AKT1 WT, and AKT2 Target Engagement by NanoBRET Competitive Probe Displacement.
Live cell target engagement assays were performed as described (Vasta, J. D. et al. Cell Chem Biol 2018, 25(11), 206-214). Briefly, HEK293 cells were transfected with plasmids encoding kinase-NanoLuciferase fusion proteins overnight. Cells were then treated with serial dilutions of compound and an ˜EC50 concentration of fluorescently-tagged ATP-competitive tracer (Promega). After incubation for 2 h at 37° C., luciferase substrate and extracellular luciferase inhibitor were added to all wells, and luminescent intensity at 460 nm and 600 nm were measured on a multimode plate-reader. The ratio of E600/E460 was calculated to give the tracer engagement signal (BRET). IC50 values were calculated by fitting BRET values to a log(inhibitor) vs. response Hill equation.

For assay [1], the system named is LAPC4 prostate cancer cells. The assay can be described thus: Antiproliferative effects in LAPC4 cells (CellTiter Glo). The assay is classed as cell-based. The following applies: LAPC4 cells (AKT1 E17K allele), read-out: LAPC4 proliferation IC50. How it is done: Antiproliferative Effects in LAPC4 Cells.
LAPC4 prostate cancer cells (Klein, K. A. et al. Nat Med 1997, 3, 402-408), which express the AKT1 E17K allele, were grown in IMDM media (Hyclone) supplemented with 12% FBS+1% P/S. To assess compound effects on growth, 1,000 cells/well were seeded in 384 well assay plates, incubated with compound dilutions dissolved in DMSO. After 72 h, intracellular ATP content was assessed with CellTiter Glo reagent (Promega) according to the manufacturer's instructions. IC50 values were calculated by fitting luminescence values to a log(inhibitor) vs. response Hill equation.
In general terms: In ATP-based viability assays light output follows the ATP content of the culture.

Like-named read-outs stand apart in the source and are kept apart here. A value given as a limit tells only on which side of the number the result lay.

T1 sequence (P31749 whole entry E17K): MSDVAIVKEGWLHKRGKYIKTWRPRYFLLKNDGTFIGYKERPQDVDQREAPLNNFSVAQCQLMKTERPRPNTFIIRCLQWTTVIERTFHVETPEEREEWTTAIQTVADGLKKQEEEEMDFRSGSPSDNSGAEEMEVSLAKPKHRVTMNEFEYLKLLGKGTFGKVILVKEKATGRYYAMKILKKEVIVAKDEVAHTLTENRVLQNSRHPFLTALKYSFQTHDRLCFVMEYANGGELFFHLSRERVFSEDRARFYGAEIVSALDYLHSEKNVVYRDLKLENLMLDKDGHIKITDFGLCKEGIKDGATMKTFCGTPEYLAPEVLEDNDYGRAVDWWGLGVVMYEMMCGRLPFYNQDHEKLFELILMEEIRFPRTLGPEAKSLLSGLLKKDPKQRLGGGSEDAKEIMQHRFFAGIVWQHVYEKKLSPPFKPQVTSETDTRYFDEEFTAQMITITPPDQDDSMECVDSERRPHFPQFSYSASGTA

`C=CC(=O)N1CCN(C2CCc3cc(-n4c(-c5cccnc5N)nc5ccc(-n6cccn6)nc54)ccc32)CC1` (centres unmarked) [Example 204, 1-(4-{5-[2-(2-aminopyridin-3-yl)-5-(pyrazol-1-yl)imidazo[4,5-b]pyridin-3-yl]-2,3-dihydro-1H-inden-1-yl}piperazin-1-yl)prop-2-en-1-one]: the IC50 on AKT1 E17K was 0.287 µM; in assay [1] (Homo sapiens, LAPC4, 72 h) it was 3.82 µM.

On to `C=CC(=O)N1CC(F)C(N[C@H]2CCc3cc(-n4c(-c5cccnc5N)nc5ccc(-n6cccn6)nc54)ccc32)C(F)C1` (single isomer, unassigned) [Example 222, 1-((3*,5*)-4-(((S)-5-(2-(2-aminopyridin-3-yl)-5-(1H-pyrazol-1-yl)-3H-imidazo[4,5-b]pyridin-3-yl)-2,3-dihydro-1H-inden-1-yl)amino)-3,5-difluoropiperidin-1-yl)prop-2-en-1-one], for which the IC50 at AKT1 E17K was > 1 µM; in assay [1] (72 h) it was > 10 µM.

On to `C=CC(=O)N1CCC(N[C@H]2CCc3cc(-n4c(C5CC5)nc5ccc(-n6cccn6)nc54)ccc32)CC1` [Example 248, (S)-1-(4-((5-(2-cyclopropyl-5-(1H-pyrazol-1-yl)-3H-imidazo[4,5-b]-430-pyridine-3-yl)-2,3-dihydro-1H-inden-1-yl)amino)piperidin-1-yl)prop-2-en-1-one], for which the IC50 on AKT1 E17K was > 1 µM; in assay [1] (Homo sapiens, LAPC4, 72 h), > 10 µM.

At AKT1 E17K, `C=CC(=O)N1CCC(N[C@@H]2c3c(F)cc(-n4c(-c5cccnc5N)nc5ccc(-n6cccn6)nc54)cc3CC2F)CC1` (single isomer, unassigned) [Example 341, 1-(4-(((1R,2*)-5-(2-(2-aminopyridin-3-yl)-5-(1H-pyrazol-1-yl)-3H-imidazo[4,5-b]pyridin-3-yl)-2,7-difluoro-2,3-dihydro-1H-inden-1-yl)amino)piperidin-1-yl)prop-2-en-1-one] gave an IC50 of 0.0803 µM.

For the compound `C=CC(=O)N1CCC(N[C@@H]2c3ccc(-n4c(-c5cccnc5N)nc5ccc(-n6cccn6)nc54)cc3CC2C)CC1` (single isomer, unassigned) [Example 182, 1-(4-(((1S,2*)-5-(2-(2-aminopyridin-3-yl)-5-(1H-pyrazol-1-yl)-3H-imidazo[4,5-b]pyridin-3-yl)-2-methyl-2,3-dihydro-1H-inden-1-yl)amino)piperidin-1-yl)prop-2-en-1-one], the IC50 at AKT1 E17K was determined as 0.152 µM; in assay [1] (72 h), 3.16 µM.

As to `C=CC(=O)N1CC(F)C(N[C@H]2CCc3cc(-n4c(-c5cccnc5N)nc5ccc(-n6cccn6)nc54)ccc32)C(F)C1` (single isomer, unassigned) [Example 220, 1-((3*,4*,5*)-4-(((S)-5-(2-(2-aminopyridin-3-yl)-5-(1H-pyrazol-1-yl)-3H-imidazo[4,5-b]pyridin-3-yl)-2,3-dihydro-1H-inden-1-yl)amino)-3,5-difluoropiperidin-1-yl)prop-2-en-1-one], the IC50 on AKT1 E17K was 0.38 µM; in assay [1] (Homo sapiens, LAPC4, 72 h) it was > 10 µM.

Take `C=CC(=O)N1C[C@H]2COC[C@@H](C1)C2N[C@H]1CCc2cc(-n3c(-c4cccnc4N)nc4ccc(C5CC5)nc43)ccc21` (single isomer, unassigned) [Example 171, 1-((1R,5S,9*)-9-(((S)-5-(2-(2-aminopyridin-3-yl)-5-cyclopropyl-3H-imidazo[4,5-b]pyridin-3-yl)-2,3-dihydro-1H-inden-1-yl)amino)-3-oxa-7-azabicyclo[3.3.1]nonan-7-yl)prop-2-en-1-one]: the IC50 is > 1 µM at AKT1 E17K and 6.61 µM in assay [1] (72 h).

Take `C=CC(=O)N1CC(F)C(N[C@H]2CCc3cc(-n4c(-c5cccnc5N)nc5ccc(-n6cccn6)nc54)ccc32)C(F)C1` (single isomer, unassigned) [Example 223, 1-((3*,5*)-4-(((S)-5-(2-(2-aminopyridin-3-yl)-5-(1H-pyrazol-1-yl)-3H-imidazo[4,5-b]pyridin-3-yl)-2,3-dihydro-1H-inden-1-yl)amino)-3,5-difluoropiperidin-1-yl)prop-2-en-1-one]: the IC50 at AKT1 E17K was > 1 µM; in assay [1] (72 h), > 10 µM.

`C=CC(=O)N1CCC(N[C@H]2CCc3cc(-n4c(-c5cccnc5N)nc5ccc(N6C7CCC6COC7)nc54)ccc32)CC1` [Example 278, 1-(4-{[(1S)-5-[2-(2-aminopyridin-3-yl)-5-{3-oxa-8-azabicyclo[3.2.1]octan-8-yl}imidazo[4,5-b]pyridin-3-yl]-2,3-dihydro-1H-inden-1-yl]amino}piperidin-1-yl)prop-2-en-1-one]: the IC50 at AKT1 E17K came to 0.164 µM; in assay [1] (Homo sapiens, LAPC4, 72 h), 1.85 µM.

With `C=CC(=O)N1CCC(N[C@H]2CC(F)(F)c3cc(-n4c(-c5cccnc5N)nc5ccc(-n6cccn6)nc54)ccc32)CC1` [Example 305, (S)-1-(4-((5-(2-(2-aminopyridin-3-yl)-5-(1H-pyrazol-1-yl)-3H-imidazo[4,5-b]pyridin-3-yl)-3,3-difluoro-2,3-dihydro-1H-inden-1-yl)amino)piperidin-1-yl)prop-2-en-1-one], the IC50 on AKT1 E17K amounted to 0.0634 µM; in assay [1] (Homo sapiens, LAPC4, 72 h), 2.74 µM.

`C=CC(=O)N1CCC(N[C@H]2CCc3cc(-n4c(-c5ccccc5C#N)nc5ccc(-n6cccn6)nc54)ccc32)CC1` [Example 284, 2-{3-[(1S)-1-{[1-(prop-2-enoyl)piperidin-4-yl]amino}-2,3-dihydro-1H-inden-5-yl]-5-(pyrazol-1-yl)imidazo[4,5-b]pyridin-2-yl}benzonitrile]: the IC50 is 0.273 µM at AKT1 E17K and 7.21 µM in assay [1] (Homo sapiens, LAPC4, 72 h).

For `C=CC(=O)N1Cc2cccc(C(=O)N[C@H]3CCc4cc(-n5c(-c6cccnc6N)nc6ccc(-n7cccn7)nc65)ccc43)c2C1` [Example 266, (S)-2-acryloyl-N-(5-(2-(2-aminopyridin-3-yl)-5-(1H-pyrazol-1-yl)-3H-imidazo[4,5-b]pyridin-3-yl)-2,3-dihydro-1H-inden-1-yl)isoindoline-4-carboxamide], the IC50 on AKT1 E17K is 0.00334 µM; in assay [1] (Homo sapiens, LAPC4, 72 h) it was 0.0044 µM.

In the case of `C=CC(=O)N1CCC(N[C@H]2CCc3cc(-n4c(-c5cccnc5N)nc5ccc(-n6cccn6)nc54)ccc32)C[C@H]1C(F)F` (single isomer, unassigned) [Example 215, 1-((2S,4*)-4-(((S)-5-(2-(2-aminopyridin-3-yl)-5-(1H-pyrazol-1-yl)-3H-imidazo[4,5-b]pyridin-3-yl)-2,3-dihydro-1H-inden-1-yl)amino)-2-(difluoromethyl)piperidin-1-yl)prop-2-en-1-one], the IC50 at AKT1 E17K was 0.00456 µM; in assay [1] (72 h), 0.0423 µM.

Take `C=CC(=O)N1CCC(N[C@@H]2c3ccc(-n4c(-c5cccnc5N)nc5ccc(C6CC6)nc54)cc3CC2F)CC1` (single isomer, unassigned) [Example 202, 1-(4-(((1R,2*)-5-(2-(2-aminopyridin-3-yl)-5-cyclopropyl-3H-imidazo[4,5-b]pyridin-3-yl)-2-fluoro-2,3-dihydro-1H-inden-1-yl)amino)piperidin-1-yl)prop-2-en-1-one]: the IC50 at AKT1 E17K amounted to 0.111 µM; in assay [1] (Homo sapiens, LAPC4, 72 h), 3.09 µM.

Consider `C=CC(=O)N1CC(F)C(N[C@H]2CCc3cc(-n4c(-c5cccnc5N)nc5ccc(-n6cccn6)nc54)ccc32)C(F)C1` (single isomer, unassigned) [Example 221, 1-((3*,4*,5*)-4-(((S)-5-(2-(2-aminopyridin-3-yl)-5-(1H-pyrazol-1-yl)-3H-imidazo[4,5-b]pyridin-3-yl)-2,3-dihydro-1H-inden-1-yl)amino)-3,5-difluoropiperidin-1-yl)prop-2-en-1-one], for which the IC50 on AKT1 E17K was 0.567 µM; in assay [1] (72 h) it was > 10 µM.
